Assays:
[1] = tested on: Dlxi1/2b::eGFP+ cells in fused hSS-hCS; test: Live imaging of interneuron migration in fused hSS-hCS (control); type: cell-based, human; details: 100 nM, before vs after exposure
Procedure: Live imaging and analysis of Dlxi1/2b::eGFP+ cell migration. The migration of Dlxi1/2b::eGFP+ cells was imaged for 8-12 hrs under environmentally controlled conditions (37° C., 5% CO2) in intact, fused hSS-hCS using a confocal microscope with a motorized stage (Leica SP8). Fused hSS-hCS were transferred to a well of a 96-well plate (glass-bottom plates, Corning) in 200 μl of NM. Spheroids were incubated in the environmentally controlled chamber for 30-60 min prior to imaging. During a given recording session, up to 8 fused hSS-hCS were imaged at a depth of 50-150 μm depth and a rate of 15-20 min/frame. For pharmacological manipulation, cells were imaged for 12 hrs to record a baseline. Then, the media was carefully removed and new media with small molecules (AMD3100 at 100 nM; nimodipine at 5 μM; or roscovitine at 15 μM) was gently added to the well. The field of view was readjusted to capture the previous region of interest and cells in fused hSS-hCS were imaged for an additional 12 hrs. For imaging of Dlxi1/2b::eGFP+ cells, E17-E18 slices were placed on inserts and infected with Dlxi1/2b::eGFP lentivirus after 24 hrs. The slices were imaged 2 days later using a Leica SP8 confocal microscope (see above). For measuring the branch to soma length ratio of human cells on mouse slices, hSSs infected with Dlxi1/2b::eGFP lentivirus were dissociated and placed on top of E13-14 mouse slices, which were placed on cell culture inserts 8-24 hrs before. The hSS-derived Dlxi1/2b::eGFP+ cells were imaged with the Leica SP8 confocal microscope system at least 48 hrs later. The migration of mouse Dlxi1/2b::eGFP+ cells or Cav1.2-electroporated cells and the migration of human fetal Dlxi1/2b::eG FP-infected cells both imaged using the same setting as described for intact, fused hSS-hCS. Slices were kept on the cell culture inserts during imaging. For quantification of migration of Dlxi1/2b::eGFP+ cells after plating on coverslips, intact hSS were plated on Poly-ornithine/laminin (Sigma) coated glass coverslips (15 mm; Werner). Cells were imaged 7-10 days after using a confocal microscope (Leica SP8) as described above. ImageJ and the Chemotaxis & Migration Tool (Ibidi) were used for the post-acquisition analysis of cell mobility. The StackReg plugin in ImageJ was used to correct for minor drifts during imaging. To estimate the length of individual saltations, Dlxi1/2b::eGFP cells displaying a swelling of the soma were identified, and distance (in μm) to the new position of the soma following nucleokinesis was recorded manually. The time necessary for this movement was used to calculate the speed when mobile. […] Path directness was calculated as the E/A ratio. […]

[2] = molecular target: element-binding protein (CBP) (Homo sapiens, UniProt Q92793); details: cited from earlier work
[3] = tested on: Wnt processing and secretion; details: cell-free assay; read-out: IC50, inhibition of Wnt processing and secretion; cited from earlier work
[4] = molecular target: T1, Porcn (Homo sapiens, UniProt Q9H237); details: read-out: EC50, Porcn inhibition; cited from earlier work
T1 sequence (Q9H237 1-461): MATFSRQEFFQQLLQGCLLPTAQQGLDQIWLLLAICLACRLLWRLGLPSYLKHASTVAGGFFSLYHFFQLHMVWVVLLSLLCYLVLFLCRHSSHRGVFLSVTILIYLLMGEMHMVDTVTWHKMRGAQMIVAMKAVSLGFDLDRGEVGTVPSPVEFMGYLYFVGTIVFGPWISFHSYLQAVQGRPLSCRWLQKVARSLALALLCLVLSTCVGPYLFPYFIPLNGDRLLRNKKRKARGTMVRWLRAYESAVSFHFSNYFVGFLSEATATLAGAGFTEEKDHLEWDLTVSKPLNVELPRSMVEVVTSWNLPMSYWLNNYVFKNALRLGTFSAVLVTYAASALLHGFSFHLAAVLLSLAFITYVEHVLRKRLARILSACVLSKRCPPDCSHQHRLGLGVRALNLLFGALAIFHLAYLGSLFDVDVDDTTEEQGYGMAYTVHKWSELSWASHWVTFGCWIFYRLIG

[5] = tested on: Wnt signaling; details: TM3 cells; read-out: IC50, inhibition of Wnt signaling; cited from earlier work
[6] = molecular target: Smo (Homo sapiens, UniProt Q99835); details: read-out: KD, Smo heptahelical domain; cited from earlier work
[7] = molecular target: T2, TNKS2 (Homo sapiens, UniProt Q9H2K2); details: cited from earlier work
T2 sequence (Q9H2K2 1-1166): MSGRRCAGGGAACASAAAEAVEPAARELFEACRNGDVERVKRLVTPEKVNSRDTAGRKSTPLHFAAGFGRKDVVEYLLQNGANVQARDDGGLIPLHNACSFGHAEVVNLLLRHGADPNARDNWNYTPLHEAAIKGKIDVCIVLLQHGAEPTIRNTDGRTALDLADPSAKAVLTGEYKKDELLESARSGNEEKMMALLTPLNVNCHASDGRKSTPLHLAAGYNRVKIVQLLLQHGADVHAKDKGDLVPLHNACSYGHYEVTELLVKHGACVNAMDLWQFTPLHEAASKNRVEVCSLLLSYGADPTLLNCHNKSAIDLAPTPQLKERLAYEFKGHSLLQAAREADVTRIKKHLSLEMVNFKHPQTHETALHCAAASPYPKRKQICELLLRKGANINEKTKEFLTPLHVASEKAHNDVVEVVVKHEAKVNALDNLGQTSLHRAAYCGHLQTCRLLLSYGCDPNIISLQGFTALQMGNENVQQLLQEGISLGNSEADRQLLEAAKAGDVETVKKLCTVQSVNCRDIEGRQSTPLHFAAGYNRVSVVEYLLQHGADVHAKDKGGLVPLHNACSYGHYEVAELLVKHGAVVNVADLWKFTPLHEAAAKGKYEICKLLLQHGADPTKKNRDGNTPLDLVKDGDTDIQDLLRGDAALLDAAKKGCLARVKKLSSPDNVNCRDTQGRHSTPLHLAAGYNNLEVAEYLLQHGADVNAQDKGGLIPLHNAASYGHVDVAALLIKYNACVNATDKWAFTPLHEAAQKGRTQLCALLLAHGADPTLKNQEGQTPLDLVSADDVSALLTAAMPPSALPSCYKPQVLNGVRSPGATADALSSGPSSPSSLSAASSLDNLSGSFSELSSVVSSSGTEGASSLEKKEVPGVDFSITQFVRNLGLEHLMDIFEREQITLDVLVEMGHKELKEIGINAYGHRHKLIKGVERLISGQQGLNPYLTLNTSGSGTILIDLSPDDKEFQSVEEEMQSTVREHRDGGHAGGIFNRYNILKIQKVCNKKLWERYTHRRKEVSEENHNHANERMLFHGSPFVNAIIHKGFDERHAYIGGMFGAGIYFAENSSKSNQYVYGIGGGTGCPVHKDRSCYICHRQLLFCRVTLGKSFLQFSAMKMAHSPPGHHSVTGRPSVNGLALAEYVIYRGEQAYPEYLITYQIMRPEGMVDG

[8] = molecular target: Wnt3A-mediated activation of a multimerized TCF-binding site driving luciferase; details: HEK293 cells; cited from earlier work
[9] = tested on: hSS; test: Characterization of hSS differentiation conditions (RT-qPCR, immunostaining); details: AlloP with or without RA (hSS-ISA, hSS-ISRA)
Procedure: For the generation of hSS, the medium was supplemented with additional small molecules during the first 23 days in culture; a schematic showing the recipes is presented in FIG. 8a). […] IWP-2 (5 μM; Selleckchem) from day 4 until day 24, and the SHH pathway agonist SAG (smoothened agonist; 100 nM; Selleckchem) from day 12 to day 24. The hSS-ISA condition also included IWP2 and SAG with the addition of allopregnanolone (AlloP 100 nM; Cayman Chemicals) from day 15 to day 23, while the hSS-ISRA condition included AlloP (100 nM) from day 15-23, and a brief exposure (day 12-15) to retinoic acid (RA 100 nM; Sigma). From day 25 to 42, the NM for both the hCS and hSS conditions, was supplemented with the growth factors BDNF (20 ng/ml; Peprotech) and NT3 (20 ng/ml; Peprotech) with medium changes every other day. From day 43 onwards, hCS and hSS were maintained in unsupplemented NM with medium changes every four to six days.
Immunohistochemistry. Cryosections were washed with PBS to remove excess OCT and blocked in 10% goat serum (NGS), 0.3% Triton X-100 diluted in PBS for 1 hr at room temperature. […]
Real time quantitative PCR (qPCR). mRNA was isolated using the RNeasy Mini Kit and RNase-Free DNase set (Qiagen), and template cDNA was prepared by reverse transcription using the SuperScript III First-Strand Synthesis SuperMix for qRT-PCR (Life Technologies). […]

[10] = tested on: hSS; test: Fluo-4 calcium imaging in intact hSS; details: 7 days AlloP 100 nM combined with 3-day retinoic acid 100 nM (hSS-ISRA); ~day 50; P=0.006
Procedure: The generation of hCS from hiPSC was performed as previously described. […] For the generation of hSS, the medium was supplemented with additional small molecules during the first 23 days in culture; a schematic showing the recipes is presented in FIG. 8a). […] IWP-2 (5 μM; Selleckchem) from day 4 until day 24, and the SHH pathway agonist SAG (smoothened agonist; 100 nM; Selleckchem) from day 12 to day 24. The hSS-ISA condition also included IWP2 and SAG with the addition of allopregnanolone (AlloP 100 nM; Cayman Chemicals) from day 15 to day 23, while the hSS-ISRA condition included AlloP (100 nM) from day 15-23, and a brief exposure (day 12-15) to retinoic acid (RA 100 nM; Sigma). From day 25 to 42, the NM for both the hCS and hSS conditions, was supplemented with the growth factors BDNF (20 ng/ml; Peprotech) and NT3 (20 ng/ml; Peprotech) with medium changes every other day. From day 43 onwards, hCS and hSS were maintained in unsupplemented NM with medium changes every four to six days.
Fluo-4 calcium imaging in intact hSS. […] Spontaneous calcium activity was recorded for 10 min (one frame every 8-10 s) in one 10 μm z-stack plane. Fluorescence intensity (F) was exported as mean gray values in ImageJ. Signal decay was controlled by subtracting the mean fluorescence of the background (Fb). […]

[11] = tested on: neurons in hSS; details: 10 μM; 250 μm sections of hSS
Procedure: (§1) Electrophysiology. […] Slicing was performed using a Leica VT1200 vibratome. Immediately after sectioning, slices were moved to a circulation chamber containing ACSF at 32° C.
(§2) For patch-clamp recording, cells were identified by the presence of a fluorescent reporter using an upright Axoscop II microscope (Zeiss). […] Cl− reversal was calculated to be at −91 mV according to the Nernst equation. […] The Cl− reversal potential was calculated to be 0 mV according to the Nernst equation. IPSCs were blocked by application of the GABAA receptor antagonist gabazine (10 μM, Abcam), which was added to superfused ACSF. EPSCs were blocked by application of the glutamate receptor antagonist kynurenic acid (1 mM, Abcam), which was added to superfused ACSF. Electrical simulation was delivered using a bipolar tungsten electrode (FHS) placed […] away from a recorded neuron. Stimulations were delivered to slices for 0.1 ms at […] and separated by at least 10 s. Inward EPSCs and outward IPSPs were recorded by filling the patch pipette with a low chloride internal solution (ECI−=−90 mV) and holding the cell at −40 mV, which is the midpoint between ECI− and EK+/Na+. […] Recordings were filtered at 10 kHz. Synaptic recordings were analyzed using custom software developed by J. R. H. (Wdetecta).

[12] = tested on: Dlxi1/2b::eGFP cells that migrated into hCS; details: 10 μM; fused hSS-hCS slices
Procedure: as §1, §2

[13] = tested on: hCS neurons; test: Patch clamp recording of EPSCs in sliced hCS; type: cell-based, human; details: 1 mM, added to superfused ACSF
Procedure: Electrophysiology. […] Slicing was performed using a Leica VT1200 vibratome. […] Recordings were filtered at 10 kHz. […] Action potentials were analyzed using custom MATLAB (MathWorks) programs.

[14] = tested on: TS Dlxi1/2b::eGFP+ cells in fused hSS-hCS; test: Live imaging of interneuron migration in fused hSS-hCS from Timothy syndrome; type: cell-based, human; details: 15 μM, P<0.001
Procedure: Live imaging and analysis of Dlxi1/2b::eGFP+ cell migration. The migration of Dlxi1/2b::eGFP+ cells was imaged for 8-12 hrs under environmentally controlled conditions (37° C., 5% CO2) in intact, fused hSS-hCS using a confocal microscope with a motorized stage (Leica SP8). Fused hSS-hCS were transferred to a well of a 96-well plate (glass-bottom plates, Corning) in 200 μl of NM. Spheroids were incubated in the environmentally controlled chamber for 30-60 min prior to imaging. During a given recording session, up to 8 fused hSS-hCS were imaged at a depth of 50-150 μm depth and a rate of 15-20 min/frame. For pharmacological manipulation, cells were imaged for 12 hrs to record a baseline. […] The field of view was readjusted to capture the previous region of interest and cells in fused hSS-hCS were imaged for an additional 12 hrs. […] For quantification of migration of Dlxi1/2b::eGFP+ cells after plating on coverslips, intact hSS were plated on Poly-ornithine/laminin (Sigma) coated glass coverslips (15 mm; Werner). […] To estimate the length of individual saltations, Dlxi1/2b::eGFP cells displaying a swelling of the soma were identified, and distance (in μm) to the new position of the soma following nucleokinesis was recorded manually. […] Path directness was calculated as the E/A ratio. […]

Sequence of element-binding protein (CBP) (Q92793 whole entry): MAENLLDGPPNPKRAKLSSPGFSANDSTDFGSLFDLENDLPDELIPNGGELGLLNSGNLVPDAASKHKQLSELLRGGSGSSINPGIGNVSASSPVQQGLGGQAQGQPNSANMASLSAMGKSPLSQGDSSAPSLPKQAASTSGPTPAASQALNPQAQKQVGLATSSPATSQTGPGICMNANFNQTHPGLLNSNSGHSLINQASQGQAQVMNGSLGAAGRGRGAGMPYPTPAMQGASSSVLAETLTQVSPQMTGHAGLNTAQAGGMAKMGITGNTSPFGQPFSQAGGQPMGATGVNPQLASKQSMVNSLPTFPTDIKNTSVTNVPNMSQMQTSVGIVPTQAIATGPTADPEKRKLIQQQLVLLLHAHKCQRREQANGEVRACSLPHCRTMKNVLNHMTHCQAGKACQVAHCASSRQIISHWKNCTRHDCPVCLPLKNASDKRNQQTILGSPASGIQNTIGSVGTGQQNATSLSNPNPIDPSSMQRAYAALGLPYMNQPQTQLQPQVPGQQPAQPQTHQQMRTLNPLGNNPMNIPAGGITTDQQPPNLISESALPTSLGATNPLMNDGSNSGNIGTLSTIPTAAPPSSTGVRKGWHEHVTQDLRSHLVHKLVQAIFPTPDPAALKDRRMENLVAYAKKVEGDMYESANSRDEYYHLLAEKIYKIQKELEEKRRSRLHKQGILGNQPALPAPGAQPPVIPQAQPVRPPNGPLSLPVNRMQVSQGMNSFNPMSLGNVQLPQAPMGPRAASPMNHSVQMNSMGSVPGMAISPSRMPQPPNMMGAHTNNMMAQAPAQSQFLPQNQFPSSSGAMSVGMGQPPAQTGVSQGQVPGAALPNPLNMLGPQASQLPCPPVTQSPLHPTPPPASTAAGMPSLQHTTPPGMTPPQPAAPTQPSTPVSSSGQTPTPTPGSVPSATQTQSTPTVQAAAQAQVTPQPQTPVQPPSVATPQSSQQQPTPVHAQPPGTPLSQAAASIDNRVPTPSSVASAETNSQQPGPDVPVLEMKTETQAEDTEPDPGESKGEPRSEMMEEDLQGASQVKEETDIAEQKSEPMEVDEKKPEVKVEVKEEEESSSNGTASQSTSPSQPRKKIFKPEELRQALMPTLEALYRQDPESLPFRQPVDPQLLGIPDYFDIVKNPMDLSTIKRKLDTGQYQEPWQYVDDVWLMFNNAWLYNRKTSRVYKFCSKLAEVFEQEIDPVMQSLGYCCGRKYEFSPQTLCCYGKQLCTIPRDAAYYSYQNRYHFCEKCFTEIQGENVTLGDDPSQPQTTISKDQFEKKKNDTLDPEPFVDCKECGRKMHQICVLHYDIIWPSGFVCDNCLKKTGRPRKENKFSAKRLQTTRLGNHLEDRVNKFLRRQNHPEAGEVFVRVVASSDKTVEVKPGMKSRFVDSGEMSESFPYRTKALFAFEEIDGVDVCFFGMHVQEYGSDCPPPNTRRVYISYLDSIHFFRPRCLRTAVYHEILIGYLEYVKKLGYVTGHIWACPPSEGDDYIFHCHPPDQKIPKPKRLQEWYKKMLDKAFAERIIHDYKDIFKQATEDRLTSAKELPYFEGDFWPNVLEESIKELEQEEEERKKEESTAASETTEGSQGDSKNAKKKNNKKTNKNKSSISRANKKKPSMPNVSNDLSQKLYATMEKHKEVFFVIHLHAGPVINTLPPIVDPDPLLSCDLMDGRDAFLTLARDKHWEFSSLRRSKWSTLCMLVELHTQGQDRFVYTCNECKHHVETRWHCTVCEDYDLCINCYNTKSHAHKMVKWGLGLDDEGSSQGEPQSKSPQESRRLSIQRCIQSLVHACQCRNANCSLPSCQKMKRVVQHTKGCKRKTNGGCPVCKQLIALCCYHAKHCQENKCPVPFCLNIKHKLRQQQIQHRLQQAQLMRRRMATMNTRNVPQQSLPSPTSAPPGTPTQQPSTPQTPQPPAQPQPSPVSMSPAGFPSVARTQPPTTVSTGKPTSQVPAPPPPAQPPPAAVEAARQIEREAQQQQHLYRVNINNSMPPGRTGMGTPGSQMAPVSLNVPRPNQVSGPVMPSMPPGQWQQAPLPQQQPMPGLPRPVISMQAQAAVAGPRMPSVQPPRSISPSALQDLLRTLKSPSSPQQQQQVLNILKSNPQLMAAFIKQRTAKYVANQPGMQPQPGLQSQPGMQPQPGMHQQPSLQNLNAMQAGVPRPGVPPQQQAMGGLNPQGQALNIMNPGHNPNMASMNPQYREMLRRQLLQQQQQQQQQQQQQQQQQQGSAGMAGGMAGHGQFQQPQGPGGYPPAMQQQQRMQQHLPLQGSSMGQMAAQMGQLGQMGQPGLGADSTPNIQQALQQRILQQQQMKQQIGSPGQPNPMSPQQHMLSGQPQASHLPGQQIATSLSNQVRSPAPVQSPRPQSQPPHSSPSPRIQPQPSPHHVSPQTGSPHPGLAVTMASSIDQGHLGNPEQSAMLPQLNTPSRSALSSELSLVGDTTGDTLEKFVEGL
Sequence of Smo (Q99835 28-787): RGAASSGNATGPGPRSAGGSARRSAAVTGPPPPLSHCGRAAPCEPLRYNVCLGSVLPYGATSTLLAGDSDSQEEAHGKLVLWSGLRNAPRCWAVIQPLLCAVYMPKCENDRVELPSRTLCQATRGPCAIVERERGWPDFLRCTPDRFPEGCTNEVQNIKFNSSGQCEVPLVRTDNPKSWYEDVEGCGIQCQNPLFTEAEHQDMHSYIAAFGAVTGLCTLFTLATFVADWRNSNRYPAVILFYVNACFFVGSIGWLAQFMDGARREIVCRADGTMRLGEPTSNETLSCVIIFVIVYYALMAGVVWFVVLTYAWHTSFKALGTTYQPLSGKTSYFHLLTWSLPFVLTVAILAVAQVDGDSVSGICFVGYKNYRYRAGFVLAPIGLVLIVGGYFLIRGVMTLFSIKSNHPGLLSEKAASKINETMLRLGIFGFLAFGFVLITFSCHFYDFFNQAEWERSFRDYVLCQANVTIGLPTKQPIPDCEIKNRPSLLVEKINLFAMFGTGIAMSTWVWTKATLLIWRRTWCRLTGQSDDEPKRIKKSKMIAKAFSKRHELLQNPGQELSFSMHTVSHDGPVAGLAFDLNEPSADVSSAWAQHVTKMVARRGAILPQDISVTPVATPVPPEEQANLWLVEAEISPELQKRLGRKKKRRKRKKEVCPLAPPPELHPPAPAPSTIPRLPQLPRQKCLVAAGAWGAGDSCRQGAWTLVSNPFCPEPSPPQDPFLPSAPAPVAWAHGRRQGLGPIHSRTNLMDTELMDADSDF

In the case of `c1cc(CN2CCCNCCNCCCNCC2)ccc1CN1CCCNCCNCCCNCC1` [AMD3100], the saltation length ([1]; P=0.006) is reported as “significant reduction”, the speed when mobile ([1]; P=0.006) is reported as “significant reduction” and the path directness ([1]; P=0.02) is reported as “change”. The frequency of saltations ([1]; P=0.03) was “significant reduction”.

For `O=C1[C@H](Cc2ccc(O)cc2)N2C(=O)CCN(C(=O)NCc3ccccc3)[C@H]2CN1Cc1cccc2ccccc12` [ICG-001], the IC50 [2] is listed as 3000 nM.

In the case of `Cc1ccc2nc(NC(=O)CSc3nc4c(c(=O)n3-c3ccccc3)SCC4)sc2c1` [IWP-2], the IC50 [3] is listed as 27 nM.

In the case of `O=C(CSc1nc2c(c(=O)n1-c1ccccc1)SCC2)Nc1ccc(-c2ccccc2)cn1` [IWP-L6], the EC50 [4] is given as 0.5 nM.

In the case of `Cc1cc(-c2ncc(CC(=O)Nc3ccc(-c4cnccn4)cn3)cc2C)ccn1` [LGK-974], the IC50 [5] is given as 0.4 nM.

For `CNC1CCC(N(Cc2cccc(-c3ccncc3)c2)C(=O)c2sc3ccccc3c2Cl)CC1` (centres unmarked) [SAG], the Kd [6] is listed as 59 nM.

In the case of `COc1ccc(-n2c(SCCCN3C(=O)c4cccc5cccc(c45)C3=O)nnc2-c2ccncc2)cc1` [WIKI4], the IC50 [7] is given as 15 nM.

In the case of `Cc1cc(-c2ccc(CC(=O)Nc3ccc(-c4cccnc4)cc3)cc2)ccn1` [Wnt-059], the IC50 [8] is listed as 0.074 nM.

With `CC(=O)[C@H]1CC[C@H]2[C@@H]3CC[C@H]4C[C@H](O)CC[C@]4(C)[C@H]3CC[C@]12C` [allopregnanolone] the “subpallial fate, neurotransmitter identity and GABAergic subtypes in hSS” value [9] was “did not alter” and the “frequency of spontaneous calcium spikes” value [10] was “significantly increased”.

For `COc1ccc(-c2ccc(=N)n(CCCC(=O)O)n2)cc1` [gabazine], the “spontaneous inhibitory postsynaptic responses (sIPSCs)” value [11] was “abolished” and the “evoked disynaptic IPSCs after electrical stimulation” value [12] was “sensitive”.

In the case of `O=C(O)c1cc(=O)c2ccccc2[nH]1` [kynurenic acid], the EPSCs [13] is reported as “blocked”.

In the case of `CC[C@H](CO)Nc1nc(NCc2ccccc2)c2ncn(C(C)C)c2n1` [roscovitine], the saltation length [14] is reported as “rescuing”.
